Assays:
RIOK2 = target: RIOK2; set-up: method as in Varin et al., 2015; conditions: ref Varin et al., 2015; cited from earlier work
HeLa cells = experiment: LC3B positive autophagosomes, immunofluorescent staining; type: cell-based; conditions: 10 µM, three days
Description: (§1) Cells were fixed with PBS containing 0.5% of para-formaldehyde for 15 min at room temperature. After three washing steps in PBS, cells were permeabilized with PBS containing 0.3% of Triton X-100 (Sigma) for 1 h at room temperature. After washing with PBS three times, cells were incubated overnight with the anti-LC3B antibody in PBS with 1% bovine serum albumin (Sigma) at 4°C. After three washing steps in PBS, cells were incubated with the fluorescent secondary antibody for 90 min at 4°C in PBS with 1% bovine serum albumin. They were then incubated with […] DAPI (Thermofisher) in PBS for 15 min. After washing with PBS, cells were rinsed once in water prior to mounting in the FluorSave reagent (Millipore).
(§2) Depending of these transitory environmental conditions, autophagy can either promote survival or apoptosis ([Degtyarev et al., 2008]). PIK/AKT pathway inhibition has been reported to increase cell autophagy ([Palmieri et al., 2017]). More specifically, PIP4K2C has been described as a down-regulator of autophagy ([Sharma et al., 2019]).

PSC = experiment: as above; type: cell-based, mouse; conditions: 10 µM, three days
Description: as §1, §2

SMILES	Kd (RIOK2)	number of LC3B-positive autophagosomes (HeLa cells)	number of LC3B-positive autophagosomes (PSC)
O=C(Cc1ccc(-c2ccccc2)cc1)Nc1ccccn1 [Diphenpyramide]	160 nM		
FC(F)(F)c1ccccc1-c1nc(NCc2cccs2)c2ccccc2n1 [NIH-12848]		confirmed in HeLa cells	
NC(=O)c1nc(Nc2ccccc2)sc1NC(=O)C1CCCCC1 [UNC-3230]		increased	increased

Source: publication PMC8371461 (Frontiers in Pharmacology, 2021)
